Test results taken from the OligoGym collection.
Where “and” joins values, the source holds several entries; their conditions need not be identical. Identical values can stand only once. HELM strings list units from the 5' end as sugar, base in round brackets, then linkage (d deoxyribose, r ribose, m 2'-O-methyl, p phosphodiester). Methylation of C is not given here. [moe] = 2'-O-(2-methoxyethyl) (MOE); [cEt] = constrained ethyl (cEt); [sp] = phosphorothioate linkage

Molecular target: HBV
Conditions: ASO

Row | Substance | target mRNA inhibition (HepG2, 0.07 µM) | further results
1 | RNA1{[moe](C)[sp].[cEt](T)[sp].d(G)[sp].d(G)[sp].d(A)[sp].d(G)[sp].d(C)[sp].d(C)[sp].d(A)[sp].d(C)[sp].d(C)[sp].d(A)[sp].[cEt](G)[sp].[moe](C)[sp].[cEt](A)[sp].[moe](G)}$$$$V2.0 | 56% | –
2 | RNA1{[moe](C)[sp].[moe](A)[sp].[moe](A)[sp].[moe](T)[sp].[moe](T)[sp].[moe](T)[sp].d(A)[sp].d(T)[sp].d(G)[sp].d(C)[sp].d(C)[sp].d(T)[sp].d(A)[sp].d(C)[sp].d(A)[sp].[moe](G)[sp].[moe](C)}$$$$V2.0 | 26% and 22% | –
3 | RNA1{[moe](C)[sp].[moe](A)[sp].[moe](A)[sp].[moe](T)[sp].[moe](T)[sp].d(T)[sp].d(A)[sp].d(T)[sp].d(G)[sp].d(C)[sp].d(C)[sp].d(T)[sp].d(A)[sp].d(C)[sp].[moe](A)[sp].[moe](G)}$$$$V2.0 | 24% and 11% | –
4 | RNA1{[moe](C)[sp].[moe](A)[sp].[moe](A)[sp].[moe](T)[sp].d(T)[sp].d(T)[sp].d(A)[sp].d(T)[sp].d(G)[sp].d(C)[sp].d(C)[sp].d(T)[sp].d(A)[sp].[moe](C)[sp].[moe](A)[sp].[moe](G)}$$$$V2.0 | 19% and 13% | –
5 | RNA1{[moe](C)[sp].[moe](A)[sp].[moe](A)[sp].d(T)[sp].d(T)[sp].d(T)[sp].d(A)[sp].d(T)[sp].d(G)[sp].d(C)[sp].d(C)[sp].d(T)[sp].[moe](A)[sp].[moe](C)[sp].[moe](A)[sp].[moe](G)[sp].[moe](C)}$$$$V2.0 | 33% and 41% | –
6 | RNA1{[moe](C)[sp].[moe](A)[sp].[moe](A)[sp].d(T)[sp].d(T)[sp].d(T)[sp].d(A)[sp].d(T)[sp].d(G)[sp].d(C)[sp].d(C)[sp].d(T)[sp].[moe](A)[sp].[moe](C)[sp].[moe](A)[sp].[moe](G)}$$$$V2.0 | 17% and 22% | –
7 | RNA1{[moe](C)[sp].[moe](A)[sp].[moe](C)[sp].[moe](T)[sp].[moe](A)[sp].d(G)[sp].d(T)[sp].d(A)[sp].d(A)[sp].d(A)[sp].d(C)[sp].d(T)[sp].d(G)[sp].d(A)[sp].[moe](G)[sp].[moe](C)[sp].[moe](C)}$$$$V2.0 | 71% and 62% | –
8 | RNA1{[moe](C)[sp].[moe](A)[sp].[moe](C)[sp].[moe](T)[sp].d(A)[sp].d(G)[sp].d(T)[sp].d(A)[sp].d(A)[sp].d(A)[sp].d(C)[sp].d(T)[sp].d(G)[sp].[moe](A)[sp].[moe](G)[sp].[moe](C)[sp].[moe](C)}$$$$V2.0 | 61% and 54% | –
9 | RNA1{[moe](C)[sp].[moe](A)[sp].d(A)[sp].d(T)[sp].d(T)[sp].d(T)[sp].d(A)[sp].d(T)[sp].d(G)[sp].d(C)[sp].d(C)[sp].[moe](T)[sp].[moe](A)[sp].[moe](C)[sp].[moe](A)[sp].[moe](G)[sp].[moe](C)}$$$$V2.0 | 53% and 46% | –
10 | RNA1{[moe](C)[sp].[moe](A)[sp].d(G)[sp].d(A)[sp].d(G)[sp].d(G)[sp].d(T)[sp].d(G)[sp].d(A)[sp].d(A)[sp].d(G)[sp].[moe](C)[sp].[moe](G)[sp].[moe](A)[sp].[moe](A)[sp].[moe](G)[sp].[moe](T)}$$$$V2.0 | 61% | –
11 | RNA1{[moe](C)[sp].[moe](C)[sp].[moe](A)[sp].[moe](A)[sp].[moe](T)[sp].d(T)[sp].d(T)[sp].d(A)[sp].d(T)[sp].d(G)[sp].d(C)[sp].d(C)[sp].d(T)[sp].d(A)[sp].[moe](C)[sp].[moe](A)}$$$$V2.0 | 15% and 6% | –
12 | RNA1{[moe](C)[sp].[moe](C)[sp].[moe](G)[sp].[moe](C)[sp].[moe](A)[sp].[moe](G)[sp].d(T)[sp].d(A)[sp].d(T)[sp].d(G)[sp].d(G)[sp].d(A)[sp].d(T)[sp].d(C)[sp].d(G)[sp].[moe](G)[sp].[moe](C)}$$$$V2.0 | 90% and 66% | –
13 | RNA1{[moe](C)[sp].[moe](C)[sp].[moe](G)[sp].[moe](C)[sp].[moe](A)[sp].d(G)[sp].d(T)[sp].d(A)[sp].d(T)[sp].d(G)[sp].d(G)[sp].d(A)[sp].d(T)[sp].d(C)[sp].[moe](G)[sp].[moe](G)}$$$$V2.0 | 75% and 71% | –
14 | RNA1{[moe](C)[sp].[moe](C)[sp].[moe](G)[sp].d(C)[sp].d(A)[sp].d(G)[sp].d(T)[sp].d(A)[sp].d(T)[sp].d(G)[sp].d(G)[sp].d(A)[sp].d(T)[sp].[cEt](C)[sp].[cEt](G)[sp].[cEt](G)}$$$$V2.0 | 72% and 79% | –
15 | RNA1{[moe](C)[sp].[moe](C)[sp].d(A)[sp].d(C)[sp].d(T)[sp].d(G)[sp].d(A)[sp].d(A)[sp].d(C)[sp].d(A)[sp].d(A)[sp].[moe](A)[sp].[moe](T)[sp].[moe](G)[sp].[moe](G)[sp].[moe](C)}$$$$V2.0 | 74% and 70% | target mRNA inhibition (HepG2, 0.0092593 µM): 8%; target mRNA inhibition (HepG2, 0.0277778 µM): 27%; target mRNA inhibition (HepG2, 0.0833333 µM): 54%; target mRNA inhibition (HepG2, 0.25 µM): 76%
16 | RNA1{[moe](C)[sp].[moe](G)[sp].[moe](A)[sp].d(A)[sp].d(C)[sp].d(C)[sp].d(A)[sp].d(C)[sp].d(T)[sp].d(G)[sp].d(A)[sp].d(A)[sp].[moe](C)[sp].[moe](A)[sp].[moe](A)[sp].[moe](A)[sp].[moe](T)}$$$$V2.0 | 60% and 50% | –

Row | Substance | target mRNA inhibition (HepG2, 0.07 µM) | further results
17 | RNA1{[moe](C)[sp].[moe](G)[sp].[moe](A)[sp].d(A)[sp].d(C)[sp].d(C)[sp].d(A)[sp].d(C)[sp].d(T)[sp].d(G)[sp].d(A)[sp].d(A)[sp].d(C)[sp].[cEt](A)[sp].[cEt](A)[sp].[cEt](A)}$$$$V2.0 | 41% and 54% | –
18 | RNA1{[moe](C)[sp].[moe](G)[sp].[moe](C)[sp].[moe](A)[sp].[moe](G)[sp].[moe](T)[sp].d(A)[sp].d(T)[sp].d(G)[sp].d(G)[sp].d(A)[sp].d(T)[sp].d(C)[sp].d(G)[sp].d(G)[sp].[moe](C)[sp].[moe](A)}$$$$V2.0 | 83% and 70% | target mRNA inhibition (HepG2, 0.0092593 µM): 10%; target mRNA inhibition (HepG2, 0.0277778 µM): 35%; target mRNA inhibition (HepG2, 0.0833333 µM): 44%; target mRNA inhibition (HepG2, 0.25 µM): 76%
19 | RNA1{[moe](C)[sp].[moe](G)[sp].[moe](C)[sp].d(A)[sp].d(G)[sp].d(T)[sp].d(A)[sp].d(T)[sp].d(G)[sp].d(G)[sp].d(A)[sp].d(T)[sp].[moe](C)[sp].[moe](G)[sp].[moe](G)[sp].[moe](C)}$$$$V2.0 | 84% and 68% | –
20 | RNA1{[moe](C)[sp].[moe](G)[sp].[moe](C)[sp].d(A)[sp].d(G)[sp].d(T)[sp].d(A)[sp].d(T)[sp].d(G)[sp].d(G)[sp].d(A)[sp].d(T)[sp].d(C)[sp].[cEt](G)[sp].[cEt](G)[sp].[cEt](C)}$$$$V2.0 | 85% and 84% | target mRNA inhibition (HepG2, 0.0092593 µM): 0%; target mRNA inhibition (HepG2, 0.0277778 µM): 50%; target mRNA inhibition (HepG2, 0.0833333 µM): 74%; target mRNA inhibition (HepG2, 0.25 µM): 81%
21 | RNA1{[moe](C)[sp].[moe](G)[sp].[moe](G)[sp].[moe](G)[sp].[moe](C)[sp].d(A)[sp].d(A)[sp].d(C)[sp].d(A)[sp].d(T)[sp].d(A)[sp].d(C)[sp].d(C)[sp].d(T)[sp].[moe](T)[sp].[moe](G)}$$$$V2.0 | 54% and 53% | –
22 | RNA1{[moe](C)[sp].[moe](G)[sp].[moe](T)[sp].[moe](G)[sp].[moe](C)[sp].d(A)[sp].d(G)[sp].d(A)[sp].d(G)[sp].d(G)[sp].d(T)[sp].d(G)[sp].d(A)[sp].d(A)[sp].[moe](G)[sp].[moe](C)}$$$$V2.0 | 59% and 51% | –
23 | RNA1{[moe](C)[sp].[moe](G)[sp].d(C)[sp].d(A)[sp].d(G)[sp].d(T)[sp].d(A)[sp].d(T)[sp].d(G)[sp].d(G)[sp].d(A)[sp].[moe](T)[sp].[moe](C)[sp].[moe](G)[sp].[moe](G)[sp].[moe](C)[sp].[moe](A)}$$$$V2.0 | 82% and 80% | –
24 | RNA1{[moe](C)[sp].[moe](G)[sp].d(T)[sp].d(G)[sp].d(C)[sp].d(A)[sp].d(G)[sp].d(A)[sp].d(G)[sp].d(G)[sp].d(T)[sp].[moe](G)[sp].[moe](A)[sp].[moe](A)[sp].[moe](G)[sp].[moe](C)}$$$$V2.0 | 51% and 60% | –
25 | RNA1{[moe](C)[sp].[moe](T)[sp].[moe](A)[sp].[moe](G)[sp].[moe](T)[sp].d(A)[sp].d(A)[sp].d(A)[sp].d(C)[sp].d(T)[sp].d(G)[sp].d(A)[sp].d(G)[sp].d(C)[sp].[moe](C)[sp].[moe](A)}$$$$V2.0 | 71% and 63% | –
26 | RNA1{[moe](C)[sp].[moe](T)[sp].[moe](G)[sp].[moe](G)[sp].d(A)[sp].d(G)[sp].d(C)[sp].d(C)[sp].d(A)[sp].d(C)[sp].d(C)[sp].d(A)[sp].d(G)[sp].[moe](C)[sp].[moe](A)[sp].[moe](G)}$$$$V2.0 | 57% and 60% | –
27 | RNA1{[moe](C)[sp].[moe](T)[sp].[moe](G)[sp].d(G)[sp].d(A)[sp].d(G)[sp].d(C)[sp].d(C)[sp].d(A)[sp].d(C)[sp].d(C)[sp].d(A)[sp].[moe](G)[sp].[moe](C)[sp].[moe](A)[sp].[moe](G)}$$$$V2.0 | 42% and 38% | –
28 | RNA1{[moe](C)[sp].[moe](T)[sp].[moe](G)[sp].d(G)[sp].d(A)[sp].d(G)[sp].d(C)[sp].d(C)[sp].d(A)[sp].d(C)[sp].d(C)[sp].d(A)[sp].d(G)[sp].[cEt](C)[sp].[cEt](A)[sp].[cEt](G)}$$$$V2.0 | 60% | –
29 | RNA1{[moe](C)[sp].[moe](T)[sp].d(G)[sp].d(G)[sp].d(A)[sp].d(G)[sp].d(C)[sp].d(C)[sp].d(A)[sp].d(C)[sp].d(C)[sp].[moe](A)[sp].[moe](G)[sp].[moe](C)[sp].[moe](A)[sp].[moe](G)[sp].[moe](G)}$$$$V2.0 | 66% and 64% | –
30 | RNA1{[moe](G)[sp].[cEt](A)[sp].[cEt](A)[sp].d(G)[sp].d(A)[sp].d(T)[sp].d(G)[sp].d(A)[sp].d(G)[sp].d(G)[sp].d(C)[sp].d(A)[sp].d(T)[sp].[cEt](A)[sp].[cEt](G)[sp].[moe](C)}$$$$V2.0 | 69% and 66% | –
31 | RNA1{[moe](G)[sp].[cEt](A)[sp].[cEt](A)[sp].d(G)[sp].d(T)[sp].d(C)[sp].d(C)[sp].d(A)[sp].d(C)[sp].d(C)[sp].d(A)[sp].d(C)[sp].d(G)[sp].[cEt](A)[sp].[cEt](G)[sp].[moe](T)}$$$$V2.0 | 59% and 53% | –
